Results: patent US20030139470A1, “3,4-dihydroxybenzyl-substituted carbonic acid derivatives and the use thereof as antioxidants” (priority 2000, published 2003)

How the values were obtained:
[1] = DPPH test for the removal of free radicals (activity as free-radical scavengers); conditions: DPPH 100 μmol/l in methanol, absorption at 515 nm
Method: The activity of the exemplary compounds as free-radical scavengers was compared with that of conventional free-radical scavengers. For this purpose, the DPPH-(1,1-diphenyl-2-picrylhydrazyl) test for the removal of free radicals was used.
DPPH was dissolved in methanol to a concentration of 100 μmol/l. A series of dilutions of the exemplary compounds, vitamin C, α-tocopherol and 3,5-di-tert-butyl-4-hydroxytoluene were prepared in methanol. Methanol served as the control. 2500 μl of the DPPH solution were mixed with 500 μl of each test solution and the decrease in absorption at 515 nm was read until the decrease was less than 2% per hour. The activity of the test substances as free-radical scavengers was calculated according to the following equation:
Activity as free-radical scavenger (%)=100−(absorption of the test compounds)/(absorption of the control)×100.
The activity as free-radical scavenger (%) in a series of dilutions of test compounds was used to calculate, for each test compound, the effective relative concentration EC50 (based on the starting concentration of DPPH, EC=c(test compound)/c(DPPH)) of a test compound at which 50% of the free radical DPPH had been removed.

[2] = Accelerated autoxidation of lipids by air, Rancimat apparatus, soybean oil; conditions: antioxidative index = IP(with test solution)/IP(control sample), soybean oil purified over alumina grade N
Method: (§1) The activity of the exemplary compounds as antioxidants was compared with that of conventional antioxidants. The test system used was the accelerated autoxidation of lipids by air with or without antioxidant using the Rancimat apparatus (Rancimat is a registered trademark of Metrohm AG, Herisau, Switzerland).
(§2) The exemplary compounds, vitamin C, α-tocopherol and 3,5-di-tert-butyl-4-hydroxytoluene were dissolved in methanol or acetone, and 100 μl of each test solution was added to a 3 g prepared oil sample. In a control sample, only solvent was added. A constant stream of dry air (20 l/h) was bubbled through the heated oil sample which contained the test solution, and the volatile oxidation products (predominantly short-chain fatty acids such as formic acid or acetic acid) were collected in a receiver containing water. The conductivity of this aqueous solution was continuously measured and documented. The oxidation of (unsaturated) fats proceeds only very slowly for some time and then suddenly increases. The time to the increase is referred to as the induction period (IP).
(§3) The following equation was used to calculate the antioxidative index (AOI):
(§4) AOI=IP(with test solution)/IP(control sample).

[3] = Accelerated autoxidation of lipids by air, Rancimat apparatus, squalene; conditions: antioxidative index = IP(with test solution)/IP(control sample), squalene purified over alumina grade N, stabilized with 1 ppm α-tocopherol
Method: as §1, §2, §3, §4
The results for the experiment at 80° C. in squalene that has been purified over alumina grade N and stabilized with 1 ppm of α-tocopherol are given in Table 4: […]

SMILES	EC50 (effective relative concentration, c(test compound)/c(DPPH), at which 50% of the free radical DPPH had been removed) [1] [mol/mol]	AOI in soybean oil at 100° C. with 0.05% test substance [2]	AOI in squalene at 80° C. with 0.005% test substance [3]
Cc1cc(C(C)(C)C)c(O)c(C(C)(C)C)c1 [3,5-Di-tert-butyl-4-hydroxytoluene, reference compound]	0.24	4.8	38
CCCCC(CC)COC(=O)NCc1ccc(O)c(O)c1 (centres unmarked) [Example 4, N-(3,4-Dihydroxybenzyl)-O-(2-ethylhexyl)urethane]	0.13	10.7	45
CCCCCCOC(=O)NCc1ccc(O)c(O)c1 [Example 3, N-(3,4-Dihydroxybenzyl)-O-hexylurethane]	0.19	14.5	49
COC(=O)NCc1ccc(O)c(O)c1 [Example 1, N-(3,4-Dihydroxybenzyl)-O-methylurethane]	0.29	7.2	34
CC(C)[C@@H]1CC[C@@H](C)C[C@H]1OC(=O)NCc1ccc(O)c(O)c1 [Example 2, N-(3,4-Dihydroxybenzyl)-O-[(1R,3R,4S)menthyl]urethane]	0.36	6.5	48

Now from value to molecule, other results behind:

EC50 (effective relative concentration, c(test compound)/c(DPPH), at which 50% of the free radical DPPH had been removed) [1] [mol/mol]	SMILES	AOI in soybean oil at 100° C. with 0.05% test substance [2]	AOI in squalene at 80° C. with 0.005% test substance [3]
0.25	Cc1c(C)c2c(c(C)c1O)CC[C@@](C)(CCC[C@H](C)CCC[C@H](C)CCCC(C)C)O2 [α-Tocopherol, reference compound]	5.1	39
0.06	CCCCCCNC(=S)NCc1ccc(O)c(O)c1 [Example 5, N-(3,4-Dihydroxybenzyl)-N′-hexylthiourea]	–	62
0.27	O=C1O[C@H]([C@@H](O)CO)C(O)=C1O [Vitamin C, reference compound]	1.2	0.7
